# ChEMBL document CHEMBL1132007, “The synthesis and biological evaluation of non-peptidic matrix metalloproteinase inhibitors” (Bioorg Med Chem Lett, 1999)
# Assays:
# [1] = target: T1, Interstitial collagenase (Homo sapiens, UniProt P03956)
# T1 sequence (P03956 whole entry): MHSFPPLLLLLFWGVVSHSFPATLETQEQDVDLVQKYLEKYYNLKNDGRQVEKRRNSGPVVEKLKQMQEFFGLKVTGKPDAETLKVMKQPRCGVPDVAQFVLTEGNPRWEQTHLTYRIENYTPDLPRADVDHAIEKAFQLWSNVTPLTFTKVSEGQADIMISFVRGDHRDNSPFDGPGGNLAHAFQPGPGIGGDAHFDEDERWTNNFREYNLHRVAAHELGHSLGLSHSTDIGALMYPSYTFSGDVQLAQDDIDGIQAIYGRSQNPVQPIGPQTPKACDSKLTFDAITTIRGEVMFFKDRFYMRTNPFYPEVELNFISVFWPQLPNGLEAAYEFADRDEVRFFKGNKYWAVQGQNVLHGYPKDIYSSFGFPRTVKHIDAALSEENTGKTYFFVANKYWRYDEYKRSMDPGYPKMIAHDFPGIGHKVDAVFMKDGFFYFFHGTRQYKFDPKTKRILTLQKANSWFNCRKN
# [2] = target: Neutrophil collagenase (Homo sapiens, UniProt P22894)
# [3] = target: Stromelysin-1 (Homo sapiens) (UniProt P08254)
# [4] = organism: Rattus norvegicus; conditions: in vivo, po
# [5] = in vivo; conditions: rat, po
# Sequence of Neutrophil collagenase (P22894 whole entry): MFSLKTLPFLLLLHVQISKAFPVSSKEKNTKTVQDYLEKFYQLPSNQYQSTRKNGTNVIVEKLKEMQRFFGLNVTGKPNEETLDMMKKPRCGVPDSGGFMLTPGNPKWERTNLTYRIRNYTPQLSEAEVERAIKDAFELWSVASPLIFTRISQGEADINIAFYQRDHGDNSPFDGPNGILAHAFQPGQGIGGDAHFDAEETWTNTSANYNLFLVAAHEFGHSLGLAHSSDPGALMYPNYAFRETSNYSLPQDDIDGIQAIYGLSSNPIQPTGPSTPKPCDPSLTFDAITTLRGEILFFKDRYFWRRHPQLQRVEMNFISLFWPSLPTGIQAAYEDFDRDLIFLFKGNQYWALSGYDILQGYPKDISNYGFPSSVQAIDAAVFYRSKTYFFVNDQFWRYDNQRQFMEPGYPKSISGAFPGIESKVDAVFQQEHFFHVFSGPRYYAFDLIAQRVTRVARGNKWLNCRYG
# Sequence of Stromelysin-1 (Homo sapiens) (P08254 whole entry, looked up): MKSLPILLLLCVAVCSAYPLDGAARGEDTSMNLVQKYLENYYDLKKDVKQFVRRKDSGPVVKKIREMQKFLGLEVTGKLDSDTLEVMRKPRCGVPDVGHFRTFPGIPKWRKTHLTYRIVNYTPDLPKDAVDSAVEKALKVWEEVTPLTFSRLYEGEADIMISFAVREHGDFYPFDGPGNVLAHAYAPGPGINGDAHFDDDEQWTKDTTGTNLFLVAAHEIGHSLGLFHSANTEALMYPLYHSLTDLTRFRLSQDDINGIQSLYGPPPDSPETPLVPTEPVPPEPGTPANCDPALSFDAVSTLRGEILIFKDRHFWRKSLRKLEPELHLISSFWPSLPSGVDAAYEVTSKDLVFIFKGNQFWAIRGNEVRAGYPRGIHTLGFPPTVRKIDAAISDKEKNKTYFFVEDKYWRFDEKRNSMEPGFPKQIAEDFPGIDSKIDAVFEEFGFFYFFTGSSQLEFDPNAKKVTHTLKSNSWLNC
IC50 [1] [nM],SMILES,further results
9,CN(C[C@H](C(=O)NO)[C@@H](CC1CCCC1)C(=O)N1CCCCC1)S(=O)(=O)c1ccc(Cl)cc1,
10,COc1ccc(S(=O)(=O)N(C)C[C@H](C(=O)NO)[C@@H](CC2CCCC2)C(=O)N2CCOCC2)cc1,
20,CC(C)C[C@@H](C(=O)N1CCOCC1)[C@H](CN1C(=O)c2ccccc2C1=O)C(=O)NO,IC50 [2]: 600 nM
800,CC(C)C[C@@H](C(=O)N1CCCCC1)[C@H](O)C(=O)NO,IC50 [2]: 1000 nM; IC60 [3]: 100000 nM
10,CS(=O)(=O)N(C[C@H](C(=O)NO)[C@@H](CC1CCCC1)C(=O)N1CCCCC1)C1CC1,
6,CN(C[C@H](C(=O)NO)[C@@H](CC1CCCC1)C(=O)N1CCCCC1)S(=O)(=O)c1cccc2ccccc12,
1000,CC(C)C[C@@H](C(=O)N(C)C)[C@H](CN(C)S(C)(=O)=O)C(=O)NO,
5,CN(C[C@H](C(=O)NO)[C@@H](CC1CCCC1)C(=O)N1CCOCC1)S(C)(=O)=O,
,CN(C[C@H](C(=O)NO)[C@@H](CC1CCCC1)C(=O)N1CCCCC1)S(C)(=O)=O,AUC [4]: 662 ng·h/mL; Cmax at 0.5 h [5]: 172 ng/mL
60,CC(C)C[C@@H](C(=O)N1CCCCC1)[C@H](CN(C)S(C)(=O)=O)C(=O)NO,
